Like-named read-outs stand apart in the source and are kept apart here.
Tested on: cancer cell lines from the cancer cell line encyclopedia (CCLE)
Assay: Cell line profiling (CLiP) proliferation experiment
Type: cell-based
Details: Homo sapiens; for EC50: read-out: Inflection Point; for IC50: read-out: Crossing Point
Method: Compound profiling experiment and data analysis was performed as previously described. Data was imported and plotted using the Tibco Spotfire DXP application. Lines were categorized as sensitive, intermediate and refractory as follows: Amax<-40 & Inflection Point <2 ~ Sensitive, Amax>-20 & Inflection Point >10 ~ Refractory, all else were called Intermediate. Cancer Cell line HG-U133 Plus 2 data was processed and normalized as described. […] Five sets of refractory cell lines were generated from the pool of refractory cell lines trying to match the lineage composition of the set of sensitive cell lines. The limma package was used as previously described to perform the statistical comparison.

[1] = KYSE-150, KYSE-150 (oesophagus)
[2] = L-363, L-363 (haematopoietic_and_lymphoid_tissue)
[3] = LN-18, LN-18 (central_nervous_system)
[4] = LN-229, LN-229 (central_nervous_system)
[5] = LS180, LS 180 (large_intestine)
[6] = LS-411N, LS411N (large_intestine)
[7] = MC116, MC116 (haematopoietic_and_lymphoid_tissue)
[8] = MIA PaCa-2, MIA PaCa-2 (pancreas)

Work on `CC(C)[C@@]12C[C@@H](O)[C@@](C)(O1)[C@@H]1CC[C@@H](C)[C@H]1[C@@H]2OC(=O)/C=C/c1ccccc1` [Englerin B] yielded an EC50 (KARPAS-299, KARPAS-299) of 12.7 µM, an IC50 (KARPAS-422, KARPAS-422) of 11.4 µM and an EC50 (KARPAS-422, KARPAS-422) of 11.4 µM. For the same molecule, the IC50 (KARPAS-422, KARPAS-422 cells) was 11.4 µM, the EC50 (KARPAS-422, KARPAS-422 cells) was 11.4 µM and the EC50 (KATO III, cell line KATO III) was 18.8 µM. The IC50 (KATO III) was 19.4 µM, the EC50 (KATO III) was 18.8 µM and the IC50 (KCL-22, KCL-22) was 13.5 µM. It also gave an EC50 (KCL-22, KCL-22) of 12.9 µM, an IC50 (KCL-22, KCL-22 cells) of 13.5 µM and an EC50 (KCL-22, KCL-22 cells) of 12.9 µM. It also gave an IC50 (KLE) greater than 30 µM, an EC50 (KLE) of 11.1 µM and an IC50 (KM12, KM12) greater than 30 µM. For the same molecule, the IC50 (KM12, KM12 cells) was greater than 30 µM, the IC50 (KMS-11, KMS-11) was 13.5 µM and the EC50 (KMS-11, KMS-11) was 13.2 µM. For the same molecule, the EC50 (KMS-11, KMS-11 cells) was 13.2 µM, the IC50 (KMS-12-BM, KMS-12-BM cells) was 24.8 µM and the EC50 (KMS-12-BM, KMS-12-BM cells) was 24.8 µM. For the same molecule, the IC50 (KMS-12-BM) was 24.8 µM, the EC50 (KMS-12-BM) was 24.8 µM and the IC50 (KNS-62, KNS-62) was greater than 30 µM. It also gave an IC50 (KNS-62, KNS-62 cells) greater than 30 µM, an IC50 (KU812, KU812) of 8.76 µM and an EC50 (KU812, KU812) of 13.2 µM. It also gave an EC50 (KU812, KU812 cells) of 13.2 µM, an IC50 (KYSE-30, KYSE-30 (oesophagus)) greater than 30 µM and an IC50 (KYSE-70, KYSE-70 (oesophagus)) of 28.2 µM. It also gave an IC50 [1] greater than 30 µM, an EC50 [1] of 12 µM and an IC50 (KYSE-270, KYSE-270 (oesophagus)) greater than 30 µM. It also gave an IC50 (KYSE-270, cell line KYSE-270) greater than 30 µM, an IC50 (KYSE-410, KYSE-410 (oesophagus)) of 21.7 µM and an IC50 (KYSE-450, KYSE-450 (oesophagus)) greater than 30 µM. It also gave an IC50 (KYSE-450, KYSE-450 cells) greater than 30 µM, an IC50 (KYSE-510, KYSE-510 (oesophagus)) greater than 30 µM and an IC50 (KYSE-520, KYSE-520 (oesophagus)) of 22.9 µM. For the same molecule, the IC50 [2] was 18.7 µM, the EC50 [2] was 27.5 µM and the IC50 (LAMA-84, LAMA-84 (haematopoietic_and_lymphoid_tissue)) was greater than 30 µM. It also gave an IC50 (LAMA-84, LAMA-84 cells) greater than 30 µM, an IC50 (LCLC-97TM1, LCLC-97TM1 (lung)) greater than 30 µM and an IC50 (LCLC-97TM1, LCLC-97TM1 cells) greater than 30 µM. For the same molecule, the IC50 (LCLC-103H, LCLC-103H (lung)) was greater than 30 µM, the IC50 (LCLC-103H, LCLC-103H cells) was greater than 30 µM and the IC50 [3] was 13.9 µM. The EC50 [3] was 13.3 µM, the EC50 (LN-18, LN-18 cells) was 13.3 µM and the IC50 [4] was greater than 30 µM. For the same molecule, the EC50 [4] was 22.1 µM, the IC50 (LOX IMVI, LOX IMVI (skin)) was greater than 30 µM and the IC50 (LOX IMVI, LOX IMVI cells) was greater than 30 µM. It also gave an IC50 (LP-1, LP-1 cells) of 18.7 µM, an EC50 (LP-1, LP-1 cells) of 18.7 µM and an IC50 [5] greater than 30 µM. The EC50 [5] was 9.77 µM, the IC50 (LS180, LS 180 cells) was greater than 30 µM and the EC50 (LS180, LS 180 cells) was 9.77 µM. It also gave an IC50 [6] of 16.3 µM, an EC50 [6] of 16.3 µM and an IC50 (LXF-289, LXF-289 (lung)) greater than 30 µM. It also gave an IC50 (LoVo, LoVo (large_intestine)) greater than 30 µM, an EC50 (LoVo, LoVo (large_intestine)) of 12.6 µM and an IC50 (Lu-65, LU65 (lung)) greater than 30 µM. The IC50 (Lu-99, LU99 (lung)) was 27.2 µM, the EC50 (Lu-99, LU99 (lung)) was 12.9 µM and the IC50 [7] was 14.1 µM. The EC50 [7] was 14.1 µM, the IC50 (MCF7, MCF7 (breast)) was 13.7 µM and the EC50 (MCF7, MCF7 (breast)) was 10.8 µM. The IC50 (MCF7, MCF7 cells) was 13.7 µM, the EC50 (MCF7, MCF7 cells) was 10.8 µM and the IC50 (MDA-MB-175-VII, MDA-MB-175-VII (breast)) was greater than 30 µM. It also gave an IC50 (MDA-MB-231, MDA-MB-231 (breast)) greater than 30 µM, an IC50 (MDA-MB-231, cell line MDA-MB-231 (breast, NS)) greater than 30 µM and an IC50 (MDA-MB-415, MDA-MB-415 (breast)) greater than 30 µM. It also gave an IC50 (MDA-MB-436, MDA-MB-436 (breast)) greater than 30 µM, an IC50 (MDA-MB-453, MDA-MB-453 (breast)) of 18.2 µM and an IC50 (MDA-MB-468, MDA-MB-468 (breast)) greater than 30 µM. For the same molecule, the IC50 (MDA-MB-468, MDA-MB-468 cells) was greater than 30 µM, the IC50 (MEC1, MEC-1 (haematopoietic_and_lymphoid_tissue)) was 22.2 µM and the IC50 (MEG-01, MEG-01 (haematopoietic_and_lymphoid_tissue)) was 29.2 µM. For the same molecule, the IC50 (MEL-JUSO, MEL-JUSO (skin)) was greater than 30 µM, the IC50 (MEL-JUSO, cell line MEL-JUSO (skin)) was greater than 30 µM and the IC50 (MFE-296, cell line MFE-296 (endometrium)) was 23.1 µM. For the same molecule, the IC50 (MG-63, cell line MG-63 (bone)) was greater than 30 µM, the IC50 (MG-63, cell line MG-63) was greater than 30 µM and the IC50 [8] was greater than 30 µM. For the same molecule, the EC50 [8] was 11.3 µM and the IC50 (MIA PaCa-2, cell line MIA PaCa-2 (pancreas)) was greater than 30 µM.

— PMC4476799, “Englerin A Agonizes the TRPC4/C5 Cation Channels to Inhibit Tumor Cell Line Proliferation” (PLoS ONE, 2015)
